From patent publication US9567336B2, “Conjugated TLR7 and/or TLR8 and TLR2 agonists” (CAYLA, priority 2012, dated 2017)

Columns and labels:
murine TLR7 = molecular target: T1, murine TLR7 (Mus musculus, UniProt P58681); assay: HEK-Blue mTLR7 NF-κB/AP-1 SEAP reporter cell assay; assay type: cell-based; conditions: HEK-Blue mTLR7 reporter cells, 10 μg/mL to 10 pg/ml, 24 hours, OD at 655 nm; FIGS. 2A, 2B
T1 construct: host or cells: HEK293 (HEK-Blue mTLR7)
T1 sequence (P58681 27-1050): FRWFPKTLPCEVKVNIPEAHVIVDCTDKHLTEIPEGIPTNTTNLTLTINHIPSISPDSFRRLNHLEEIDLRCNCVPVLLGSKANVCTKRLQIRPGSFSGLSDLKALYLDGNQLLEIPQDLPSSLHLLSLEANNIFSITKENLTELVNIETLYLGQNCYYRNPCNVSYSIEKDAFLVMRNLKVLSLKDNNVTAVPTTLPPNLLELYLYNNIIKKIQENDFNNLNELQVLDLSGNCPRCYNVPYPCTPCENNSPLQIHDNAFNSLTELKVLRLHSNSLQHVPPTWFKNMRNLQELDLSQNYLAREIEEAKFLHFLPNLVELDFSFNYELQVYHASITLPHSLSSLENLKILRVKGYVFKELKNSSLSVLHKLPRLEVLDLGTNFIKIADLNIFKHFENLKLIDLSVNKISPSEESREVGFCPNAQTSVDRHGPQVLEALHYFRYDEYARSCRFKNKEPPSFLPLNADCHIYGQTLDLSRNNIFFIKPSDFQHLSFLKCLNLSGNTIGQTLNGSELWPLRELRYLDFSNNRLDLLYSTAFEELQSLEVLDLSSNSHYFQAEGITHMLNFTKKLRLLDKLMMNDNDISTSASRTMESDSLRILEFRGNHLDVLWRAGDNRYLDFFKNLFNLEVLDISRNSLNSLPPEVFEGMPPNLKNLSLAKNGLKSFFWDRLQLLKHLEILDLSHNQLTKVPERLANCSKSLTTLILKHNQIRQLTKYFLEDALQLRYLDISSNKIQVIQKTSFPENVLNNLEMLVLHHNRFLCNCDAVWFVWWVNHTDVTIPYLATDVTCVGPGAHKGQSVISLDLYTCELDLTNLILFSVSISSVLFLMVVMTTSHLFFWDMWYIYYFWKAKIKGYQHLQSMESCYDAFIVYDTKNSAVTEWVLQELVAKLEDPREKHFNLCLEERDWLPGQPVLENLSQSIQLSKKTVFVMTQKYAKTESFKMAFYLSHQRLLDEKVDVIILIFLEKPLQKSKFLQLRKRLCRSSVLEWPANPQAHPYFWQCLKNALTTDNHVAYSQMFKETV
Method: (§1) Some conjugated compounds of the invention were tested for their ability to activate TLR7 and TLR2 receptor signaling. Cell-based assays were carried out using TLR7 and TLR2 reporter cell lines (InvivoGen). The reporter cell lines are engineered HEK293 cells, a human embryonic kidney cell line (ATCC, CRL-1573) that stably express either murine TLR7 (HEK-Blue™ mTLR7) or human TLR7 (HEK-Blue™ hTLR7) or murine TLR2 (HEK-Blue™ mTLR2) or human TLR2 (HEK-Blue™ hTLR2) with an NF-κB-inducible secreted embryonic alkaline phosphatase (SEAP) as the reporter gene. The SEAP reporter gene is placed under the control of the NF-κB and AP-inducible promoter. Stimulation with the corresponding TLR ligand activates NF-κB and AP-1, which induces the production of SEAP. Detection of SEAP is measured following culturing cells in HEK-Blue™ Detection media (InvivoGen). HEK-Blue™ Detection contains a SEAP substrate, which upon hydrolysis by SEAP produces a colorimetric change allowing for detection of SEAP as the protein is secreted. […] These assays were carried out using RAW-Blue™ Cells (InvivoGen), derived from RAW 264.7 mouse leukemic monocytic macrophage cell line (ATCC, CRL 2278) stably overexpressing a NF-κB/AP-1 inducible SEAP reporter constructs.
(§2) To perform the assay, cells were seeded on 96 well microliter plates at 50,000 or 100,000 cells per well for HEK-Blue™ Cells and RAW-Blue™ Cells respectively, and cultured at 37° C. in the presence of the conjugated compounds. The conjugated compounds were prepared as follows: First, stock solutions of the small molecule conjugated compounds of the invention were prepared in ethanol or water to a concentration of 10 mg/ml. A working dilution of the conjugated TLR7-TLR2 small molecules was made up in water and added to cells at a final range of concentrations from 10 μg/mL to 10 pg/ml. The working dilutions of the conjugated TLR7-TLR2 small molecules as the stated concentrations were directly added to the reporter cell lines and incubated at 37° C. for 24 hours. After 24 hours of incubation, the effect on reporter gene activity was determined by reading the OD at 655 nm using iMark™ Microplate Reader (BIO-RAD).
(§3) The conjugated compounds were tested alone for their ability to specifically activate TLR7 and TLR2, alongside the known TLR7 activators R848 or CL264 (InvivoGen) and the TLR2 agonists Pam2CSK4 or Pam3CSK4 (InvivoGen). The specificity of the TLR activity was determined by use of reporter cell lines to the other TLRs (data not shown). […] The molecules show a tendency to activate mouse TLR7 with greater sensitivity than human TLR7. […] Furthermore, dose-dependent responses of the conjugated compounds indicate significant TLR activities of TLR7 and TLR2 compared to the corresponding controls.

murine TLR2 = molecular target: T2, murine TLR2 (Mus musculus, UniProt Q9QUN7); assay: HEK-Blue mTLR2 NF-κB/AP-1 SEAP reporter cell assay; assay type: cell-based; conditions: HEK-Blue mTLR2 reporter cells, 10 μg/mL to 10 pg/ml, 24 hours, OD at 655 nm; FIG. 4
T2 construct: host or cells: HEK293 (HEK-Blue mTLR2)
T2 sequence (Q9QUN7 25-784): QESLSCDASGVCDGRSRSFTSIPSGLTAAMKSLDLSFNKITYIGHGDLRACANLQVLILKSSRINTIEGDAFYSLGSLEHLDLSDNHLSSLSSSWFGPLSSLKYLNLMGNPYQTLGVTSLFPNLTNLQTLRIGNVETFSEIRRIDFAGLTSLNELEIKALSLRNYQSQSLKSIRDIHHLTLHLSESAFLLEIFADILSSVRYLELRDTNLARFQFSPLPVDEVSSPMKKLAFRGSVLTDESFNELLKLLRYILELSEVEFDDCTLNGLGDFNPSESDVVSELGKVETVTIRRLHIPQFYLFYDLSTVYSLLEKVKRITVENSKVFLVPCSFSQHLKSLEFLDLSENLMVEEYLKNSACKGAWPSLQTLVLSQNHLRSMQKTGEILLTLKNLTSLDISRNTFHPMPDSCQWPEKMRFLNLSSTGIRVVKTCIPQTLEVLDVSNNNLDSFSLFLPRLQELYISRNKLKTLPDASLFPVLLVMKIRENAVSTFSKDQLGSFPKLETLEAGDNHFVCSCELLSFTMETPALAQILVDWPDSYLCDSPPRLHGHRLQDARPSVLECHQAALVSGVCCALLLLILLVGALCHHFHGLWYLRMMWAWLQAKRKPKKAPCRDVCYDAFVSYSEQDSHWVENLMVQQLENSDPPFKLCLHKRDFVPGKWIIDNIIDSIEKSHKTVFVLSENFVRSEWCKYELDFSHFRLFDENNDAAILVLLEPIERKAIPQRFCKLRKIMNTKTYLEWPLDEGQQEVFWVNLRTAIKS
Method: as §1, §2, §3

B16-F1 cells = assay: B16-F1 allograft tumor mouse model, intra-tumoral injections; assay type: in vivo, C57BL/6 mice; conditions: 3 intra-tumoral injections
Method: To investigate whether administering in vivo a therapeutically effective amount of a composition concerned by the invention into a tumor environment affects tumor growth, C57BL/6 mice (Janvier S.A.S.) were shaved (on their backs) and were injected subcutaneously with approximately 50 μl (5×10^5) of viable B16-F1 cells (ATCC, CRL-6323) under anesthesia, using 7 mice per group. Once the tumor volume reached about 5 mm in diameter, around day 7 after tumor cells were grafted, the mice were divided into 2 groups. A first group (control) received intra-tumoral injections of vehicle (Glucose 5% ethanol 8% that is often used to facilitate drug solubilization and so enhance delivery), for a total of 3 injections. All animal work was carried out at the animal facility at the Institut de Pharmacologie et de Biologie Structurale (IPBS) in Toulouse, in accordance with institutional guidelines. […] By day 51 following the tumor cell graft, 60% of mice in the CL401 conjugated TLR7-TLR2 small molecule treated group were still alive. In contrast, by day 26, there was no survival of mice from the control group of vehicle treated. Tumor growth was monitored and measured with calipers after day 5 of grafting tumor cells into mice and then every 2 days after. […] Tumor volume in mm^3 was determined according to the formula V=W^2×L/2, where L=length (mm) and W=width (mm)

How did the “ability to activate TLR7 receptors (murine TLR7)” value (murine TLR7) turn out when `CCCCCCCCCCCCCCCC(=O)OCC(CSC[C@H](N)C(=O)Nc1ccc(Cn2c(O)nc3c(N)nc(NCCCC)nc32)cc1)OC(=O)CCCCCCCCCCCCCCC` (mixture of isomers) [CL401, (R)-3-(2-amino-3-(4-((6-amino-2-(butylamino)-8-hydroxy-9H-purin-9-yl)methyl)phenylamino)-3-oxopropylthio)propane-1,2-diyl dipalmitate] was run?
The value was “activate TLR7 receptors”.

What about the “ability to activate TLR2 receptor (murine TLR2)” value (murine TLR2) of the same molecule?
Its value is “activate TLR2 receptor”.

And the “mice still alive (survival)” value (B16-F1 cells; by day 51 following the tumor cell graft, FIG. 6B)?
The value was 60%.

And the tumor growth (B16-F1 cells; compared to vehicle control mice, FIG. 6A)?
Its tumor growth is “significantly reduced”.
